Starred links: 1 amine or outer side, 2 acyl side, 3 side chain; linkers in the order of their positions; H or OH if unused. Non-standard residues stand in square brackets, D forms with d. Residues, ends and D or L forms follow the SMILES beside them. Groups on a side chain read outwards from the residue. *: point of attachment. Tetrahydroisoquinolin(2-yl) = c1ccc2c(c1)CCN(*)C2; Pro(3S-Et) = CC[C@H]1CCN[C@@H]1C(=O)O; X1 = CCC[C@H](N[*:1])C(=O)C(=O)[*:2]; Pyrazinecarbonyl = O=C(c1cnccn1)*; Hyp = O=C(O)[C@@H]1C[C@@H](O)CN1; CO = O=C([*:1])[*:2]

Hepatitis C virus serine protease, NS3/NS4A (Hepatitis C virus, UniProt D2K2A8+A3EZI9), sequence (D2K2A8 whole entry): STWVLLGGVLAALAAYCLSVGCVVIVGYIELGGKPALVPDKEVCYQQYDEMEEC
Hepatitis C virus serine protease, NS3/NS4A (Hepatitis C virus, UniProt D2K2A8+A3EZI9), sequence (A3EZI9 whole entry): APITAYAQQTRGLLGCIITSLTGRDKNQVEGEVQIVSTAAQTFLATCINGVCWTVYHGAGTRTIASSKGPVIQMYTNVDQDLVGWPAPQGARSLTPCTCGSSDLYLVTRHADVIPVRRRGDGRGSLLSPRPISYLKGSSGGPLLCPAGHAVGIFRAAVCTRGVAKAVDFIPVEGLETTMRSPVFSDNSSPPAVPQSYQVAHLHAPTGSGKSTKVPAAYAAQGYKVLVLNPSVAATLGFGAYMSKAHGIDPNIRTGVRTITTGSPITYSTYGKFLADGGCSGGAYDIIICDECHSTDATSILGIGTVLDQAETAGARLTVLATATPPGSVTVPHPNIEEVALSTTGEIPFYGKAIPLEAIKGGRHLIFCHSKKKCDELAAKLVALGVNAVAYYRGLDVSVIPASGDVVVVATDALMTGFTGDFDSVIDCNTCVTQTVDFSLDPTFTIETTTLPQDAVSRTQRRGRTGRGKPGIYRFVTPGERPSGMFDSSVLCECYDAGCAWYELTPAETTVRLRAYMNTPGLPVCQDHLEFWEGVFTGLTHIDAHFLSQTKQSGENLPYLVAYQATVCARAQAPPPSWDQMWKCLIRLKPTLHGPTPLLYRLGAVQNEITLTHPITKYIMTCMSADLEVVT
Hepatitis C virus serine protease, NS3/NS4A (Hepatitis C virus, UniProt A3EZI9+D2K2A8), sequence (D2K2A8 whole entry): as the sequence (D2K2A8 whole entry) above
Hepatitis C virus serine protease, NS3/NS4A (Hepatitis C virus, UniProt A3EZI9+D2K2A8), sequence (A3EZI9 whole entry): as the sequence (A3EZI9 whole entry) above

The first test has as its target Hepatitis C virus serine protease, NS3/NS4A (Hepatitis C virus, UniProt A3EZI9+D2K2A8). The experiment in a line: (§1) Inhibitory activity against hepatitis C virus NS3.4A protease. In kind it is protein-complex assay, Hepacivirus hominis.
`CCC[C@H](NC(=O)[C@@H]1CCCN1C(=O)[C@@H](NC(=O)[C@@H](NC(=O)c1cnccn1)C1CCCCC1)C(C)(C)C)C(=O)C(=O)NC1CC1`: the affinity, expressed as Ki, was 1200 nM.

The next test addresses Hepatitis C virus serine protease, NS3/NS4A (Hepatitis C virus, UniProt D2K2A8+A3EZI9). The description is as §1. In kind it is protein-complex assay, Hepacivirus hominis.
With `CCC[C@H]1CCN(C(=O)[C@@H](NC(=O)[C@@H](NC(=O)c2cnccn2)C(C)C)C(C)C)[C@@H]1C(=O)N[C@@H](CCC)C(=O)C(=O)N[C@@H](Cc1ccccc1)C(=O)O`, the affinity, expressed as Ki, was 1200 nM. That is a single-digit micromolar value.
The same measure, in the same setting: the value for `CCC[C@H](NC(=O)[C@@H]1[C@@H](CC)CCN1C(=O)[C@@H](NC(=O)[C@@H](NC(=O)c1cnccn1)C(C)C)C(C)C)C(=O)C(=O)N[C@@H](Cc1ccccc1)C(=O)O` (Pyrazinecarbonyl-VV[Pro(3S-Et)][X1]F-OH) was 220 nM.
As to `CC[C@H](NC(=O)[C@@H]1[C@@H](C)CCN1C(=O)[C@@H](NC(=O)[C@@H](NC(=O)c1cnccn1)C(C)C)C(C)C)C(=O)C(=O)N[C@@H](C)c1ccccc1`, the Ki (in general, the dissociation constant of the complex between target and ligand, obtained from inhibition or displacement) was 1400 nM.
Compound `C=CC[C@H]1CCN(C(=O)[C@@H](NC(=O)[C@@H](NC(=O)c2cnccn2)C(C)C)C(C)C)[C@@H]1C(=O)N[C@@H](CCC)C(=O)C(=O)N[C@@H](Cc1ccccc1)C(=O)O` returned a Ki of 210 nM.
In the case of `CCC[C@H](NC(=O)[C@@H]1[C@@H](C(C)CC)CCN1C(=O)[C@@H](NC(=O)[C@@H](NC(=O)c1cnccn1)C(C)C)C(C)C)C(=O)C(=O)N[C@@H](Cc1ccccc1)C(=O)O` (some centres undefined), the affinity, expressed as Ki, was 120 nM.
Turning to `CCC[C@H](NC(=O)[C@@H]1[C@@H](C(=O)OC)CCN1C(=O)[C@@H](NC(=O)[C@@H](NC(=O)c1cnccn1)C(C)C)C(C)C)C(=O)C(=O)N[C@@H](Cc1ccccc1)C(=O)O`, the Ki is 180 nM.
Same read-out and setting: the value for `CC[C@H](NC(=O)[C@@H]1C[C@@H](OCc2ccccc2)CN1C(=O)[C@@H](NC(=O)[C@@H](NC(=O)c1cnccn1)C(C)C)C(C)C)C(=O)C(=O)N[C@@H](C)c1ccccc1` was 920 nM; that for `CCC[C@H](NC(=O)[C@@H]1C[C@@H](OC(=O)N2CCc3ccccc3C2)CN1C(=O)[C@@H](NC(=O)[C@@H](NC(=O)c1cnccn1)C(C)C)C(C)C)C(=O)C(=O)N[C@@H](Cc1ccccc1)C(=O)O` (Pyrazinecarbonyl-VV[Hyp]([CO-Tetrahydroisoquinolin(2-yl)])[X1]F-OH) was 20 nM.

The values are drawn from ChEMBL document CHEMBL1149226, “Inhibitors of hepatitis C virus NS3.4A protease. Part 3: P2 proline variants” (Bioorg Med Chem Lett, 2004).
